Measured values from patent US20160051556A1, “Method and Pharmaceutical Composition for use in the Treatment of Chronic Liver Diseases Associated with a Low Hepcidin Expression” (INSERM (INSTITUT NATIONAL DE LA SANTÉ ET DE LA RECHERCHE …, priority 2013, published 2016).

Legend:
Format in all cases: in vivo, mouse
[1] = test system: Hamp mRNA; test: Liver Hamp mRNA by qRT-PCR in Bmp6-/- males treated with gefitinib; conditions: 7 w.o. Bmp6-/- males
Method: (§1) Bmp6 null mice (Bmp^6mlRob) obtained from E. Robertson and wild-type controls on a CD1 background were sacrificed at 7, 12, or 30 weeks of age. Liver, spleen, heart, pancreas and kidney samples were dissected for RNA isolation, flash frozen in liquid nitrogen and stored at −80° C. Hamp-deficient mice were kindly provided by S. Vaulont. They were derived on a C57BL/6 background in the lab of T. Ganz. Gonadectomies and sham operations were performed under anesthesia at 4 weeks of age. Testosterone (10 mg/kg; Sigma) was suspended in corn oil and a total volume of 60 μL per mouse was injected sc everyday for a week. To investigate the role of erythropoiesis in the down-regulation of hepcidin by testosterone, Bmp6−/− females were whole-body irradiated with a sublethal dose of 60Co (6 Gy) on day 1, administered daily doses of testosterone (1 μg/g) starting on day 2, and sacrificed on day 8. To investigate the effect of EGF signaling on testosterone-induced hepcidin down-regulation, the selective EGFR inhibitor Gefitinib (Iressa) was stirred into 1% Tween 80 and administered orally daily from days −1 to 7 to Bmp6−/− males (200 mg/kg; Euromedex). Mice were housed under controlled lighting and temperature conditions, fed a chow of normal iron content (250 mg iron/kg; SAFE, Augy, France) ad libidum, and were fasted for 14 h before they were killed. Experimental protocols were approved by the Midi-Pyrenees Animal Ethics Committee.
(§2) Total RNA from mouse liver was extracted using Trizol (Invitrogen). cDNA was synthesized using MMLV-RT (Promega). The sequences of the primers for target genes and the reference gene Hprt are listed in supplemental Table 1. Quantitative PCR reactions were prepared with LightCycler 480 DNA SYBR Green I Master reaction mix (Roche Diagnostics, Mannheim, Germany) and run in duplicate on a LightCycler 480 Instrument (Roche Diagnostics).
(§3) Data were first normalized to the invariant control Hprt and, for each sample and each target gene, −ΔCt=−[Ct target gene−Ct Hprt] was calculated. Because the numerical value of Ct is inversely related to the amount of amplicon in the reaction, the higher the −ΔCt value, the greater the amount of target amplicon. Values shown are means±SEM. Target gene expression in an individual is proportional to 2^−ΔCt. However, individual expression values are usually shown on a log scale and, because log 2 (2^−ΔCt)[…], −ΔCt data rather than 2^−ΔCt data are plotted on the y-axes. An increase of 1 on the y-axis thus corresponds to a 2-fold increase in target gene expression. ΔCt data are the observed values from experimental procedures and it is recommended that ΔCt data rather 2−ΔCt data be the subject of statistical analysis (41). […]

[2] = test system: Hepcidin (Hamp) mRNA; test: Liver hepcidin (Hamp) mRNA by qRT-PCR after testosterone administration to ovariectomized Bmp6-/- mice
[3] = test system: Egfr mRNA; test: Liver Egfr mRNA by qRT-PCR after testosterone administration to gonadectomized Bmp6-/- females
Method: as §1, §2, §3

[4] = test system: C-terminal phospho-Smad5; test: C-terminal phospho-Smad5 immunoblot of liver extracts, gonadectomized Bmp6-/- females treated with testosterone; conditions: administration of testosterone to Bmp6-/- females
Method: as §1, with “Mice were housed under controlled lighting and temperature conditions, fed a chow of normal iron content (250 mg iron/kg; SAFE, Augy, France) ad libidum, and were fasted for 14 h before they were killed. Experimental protocols were approved by the Midi-Pyrenees Animal Ethics Committee.” left out
(§4) Livers were homogeneized in a FastPrep®-24 Instrument (MP Biomedicals) for 15 sec at 4 m/s. […] Liver proteins were quantified using a protein assay kit (Bio-Rad). […]

[5] = test system: C-terminal phospho-Smad2; test: C-terminal phospho-Smad2 immunoblot of liver extracts, gonadectomized Bmp6-/- females treated with testosterone; conditions: administration of testosterone to Bmp6-/- females
Method: as §1, with “Mice were housed under controlled lighting and temperature conditions, fed a chow of normal iron content (250 mg iron/kg; SAFE, Augy, France) ad libidum, and were fasted for 14 h before they were killed. Experimental protocols were approved by the Midi-Pyrenees Animal Ethics Committee.” left out
as §4

[6] = gefitinib 200 mg/kg orally daily for 7 days
[7] = non-irradiated 7 w.o. ovariectomized Bmp6-/- mice, testosterone propionate 10 mg/kg sc daily for 7 days
[8] = whole-body irradiated ovariectomized Bmp6-/- mice, daily testosterone days 2 to 8
[9] = gonadectomized Bmp6-/- females, testosterone for a week

COc1cc2ncnc(Nc3ccc(F)c(Cl)c3)c2cc1OCCCN1CCOCC1 [gefitinib, 4-quinazolinamine, N-(3-chloro-4-fluorophenyl)-7-methoxy-6-[3-(4-morpholinyl)propoxy]-(9CI)]
Hamp mRNA -ΔΔCt (gefitinib vs vehicule) [1, 6]: 2.76
Hamp mRNA mean -ΔCt (Ct Hprt - Ct Hamp) [1, 6]: 4.02
Hamp expression on average higher than in mice treated with vehicule ([1]; gefitinib 200 mg/kg orally daily for 7 days, liver mRNA): 6.8 fold
Effect on Hamp mRNA levels (in words) ([1]; gefitinib daily for 7 days): significant induction of Hamp mRNA levels

CCC(=O)O[C@H]1CC[C@H]2[C@@H]3CCC4=CC(=O)CC[C@]4(C)[C@H]3CC[C@]12C [testosterone, testosterone propionate]
Effect on hepcidin expression in irradiated mice (in words) ([2]; irradiated ovariectomized Bmp6-/- females, testosterone propionate 10 mg/kg days 2 to 8): downregulation of hepcidin expression to levels similar to those observed in non irradiated control mice
Hamp mRNA -ΔΔCt (testosterone vs vehicule) [2, 7]: −3.95
Hamp mRNA mean -ΔCt (Ct Hprt - Ct Hamp) [2, 7]: 1.27
Hepcidin expression repressed on average (vs vehicule) ([2]; non-irradiated 7 w.o. ovariectomized Bmp6-/- mice, testosterone propionate 10 mg/kg sc daily for 7 days, liver mRNA): 15.4 fold
Hepcidin expression reduced on average (vs vehicule) ([2]; whole-body irradiated (60Co, 6 Gy) ovariectomized Bmp6-/- mice, daily testosterone days 2 to 8): 16.3 fold
Hamp mRNA -ΔΔCt (testosterone vs vehicule) [2, 8]: −4.03
Hamp mRNA mean -ΔCt (Ct Hprt - Ct Hamp) [2, 8]: 0.81
Egfr mRNA -ΔΔCt (testosterone vs vehicule) [3, 9]: 1.72
Egfr mRNA mean -ΔCt (Ct Hprt - Ct Egfr) [3, 9]: 0.88
Egfr expression increased on average (vs vehicule) ([3]; gonadectomized Bmp6-/- females, testosterone for a week, liver mRNA): 3.3 fold
Effect on liver Egfr expression (in words) ([3]; ovariectomized Bmp6-/- females treated with testosterone for a week): induced
C-terminal Smad phosphorylation (Smad5) in liver (in words) [4]: reduced
C-terminal Smad2 phosphorylation in liver (in words) [5]: increased
